Test results reported in patent US6951950B2, “Quaternary ammonium compounds” (Pharmacia & Upjohn Co, priority 2002, dated 2005).

System: Balb/c mice
Assay: Bronchodilatory effect of inhaled quaternary ammonium salts; methacholine-induced bronchoconstriction (Penh, whole body plethysmography)
Format: in vivo
Settings: for inhibition of the bronchoconstriction to methacholine: female BALB/c mice, 5 min inhalation of 1.29 mg/ml aerosol, 80 mg/ml methacholine
Procedure: Female BALB/c mice, weight range 19-22 g, were obtained from Charles River Laboratories (Kingston, N.C.). They received food and water ad libitum. All procedures in these studies were in compliance with the Animal Welfare Act Regulation, 9CFP. Parts 1 and 2, Publication (NIH) 85-23, 1985.
Compounds for aerosol administration were prepared in sterile Dulbecco's Phosphate Buffered Saline. Mice were placed in a carousel-style, nose only, exposure chamber and allowed to inhale aerosols for five minutes, using an ICN SPAG-2 nebulizer. This nebulizer generates a mean aerosol particle size of 1.3 microns at a rate of approximately 0.25 ml/minute.
Ten minutes and 36 hours later, the mice were moved to whole body plethysmograph chambers. Bronchoconstriction was induced in mice by administration of an 80 mg/ml methacholine (MC) aerosol into the plethysmograph chambers for 5 minutes. The mice were allowed to inhale an aerosol containing 80 mg/ml methacholine following inhalation treatment with DPBS vehicle (Dulbecco's Phosphate Buffered Saline), or 80 mg/ml methacholine following inhalation treatment with 1.29 mg/ml of (3S)-3-(2-amino-2-oxo-1,1-diphenylethyl)-1-[2-(2,3-dihydro-1-benzofuran-5-yl)ethyl]-1-methylpyrrolidinium iodide. The average enhanced pause (Penh, lung resistance), corresponding to airflow resistance, was determined and statistically analyzed using Kruskal-Wallis one way ANOVA. In order to determine the baseline, saline aerosol (without methacholine) was also separately administered to the mice.

C[N+]1(CCc2ccc3c(c2)CCO3)CC[C@@H](C(C(N)=O)(c2ccccc2)c2ccccc2)C1.[I-] (stereo partly drawn) [Example I, (3S)-3-(2-amino-2-oxo-1,1-diphenylethyl)-1-[2-(2,3-dihydro-1-benzofuran-5-yl)ethyl]-1-methylpyrrolidinium iodide]
inhibition of the bronchoconstriction to methacholine (measured 10 minutes after dosing (FIG. 1)): 100% | inhibition of the bronchoconstriction to methacholine (measured 36 hours after dosing (FIG. 2)): 61% | efficacy (lung resistance) compared to tertiary amine form (varying concentrations, quaternary compound vs its tertiary amine form (FIGS. 3A-3C)): extended activity
